What was measured:
[1] = tested on: HT-29 cell line; test: Human xenograft model, tumor volume; format: in vivo; conditions: dose equivalent to the MTD for this strain of mouse, clinical schedule; FIG. 4
Protocol: In a human xenograft model using an HT-29 cell line, proteasome inhibitors were administered using the indicated regimens.

[2] = twice weekly for two weeks (days 1, 4, 8 and 11) followed by a ten-day rest period; cited from earlier work
[3] = female rats; daily administration of doses that result in 80% inhibition of the proteasome; cited from earlier work
[4] = monkeys, cited from earlier work

## CC(C)C[C@H](NC(=O)[C@H](Cc1ccccc1)NC(=O)c1cnccn1)B(O)O [bortezomib]
[1]
  anti-tumor response: unable to induce an anti-tumor response
[2]
  maximum tolerated dose (MTD): 1.3 mg/m^2/dose
[3]
  lethality: 67%
[4]
  highest daily dose without severe toxicity, fold less than the MTD on the clinical dosing schedule: 20 fold
[4]; daily administered
  highest dose without severe toxicity: 0.5 mg/m^2

Reference: patent US20060193844A1, “Methods for enzyme inhibition” (Proteolix, Inc., priority 2005, published 2006)
